{"source": "paper PMC3094704", "about": "“S-Petasin, the Main Sesquiterpene of Petasites formosanus, Inhibits Phosphodiesterase Activity and Suppresses Ovalbumin-Induced Airway Hyperresponsiveness” (Evidence-based Complementary and Alternative Medicine : eCAM, 2011)", "key": {"PDE4": {"biological_target": "PDE4", "test": "Inhibition of PDE4 activity and Lineweaver-Burk analysis", "assay_type": "biochemical, guinea pig", "experimental": "Activities of PDE1–5, partially separated from guinea pig lungs and hearts according to the method described by Ko et al., were measured with a two-step procedure according to the method of Thompson and Appleman, using cAMP with [^3H]-cAMP or cGMP with [^3H]-cGMP as substrates. The enzyme pμreparation (25 μL) was incubated for 30 min at 37°C in a total assay volume of […] containing 50 mM Tris-HCl (pH 7.4), 3 mM MgCl2, 1 mM dithiothreitol, 0.05% BSA, 1 μM cAMP with 0.2 μCi [^3H]-cAMP as a substrate alone or in the presence of 0.1 units calmodulin with 10 μM CaCl2 or 5 μM cGMP, and 1 μM cGMP with 0.2 μCi [^3H]-cGMP as another substrate alone or in the presence of 0.1 units calmodulin with 10 μM CaCl2. In tests of enzyme inhibition, the reaction mixture contained 10 μL of vehicle or inhibitors, at various concentrations of S-petasin or selective PDE1–5 inhibitors, such as vinpocetin [22], EHNA [23], milrinone, Ro 20-1724 [25] and zaprinast, as reference drugs. The reagents and homogenate were mixed on ice, and the reaction was initiated by transferring the mixture to a water bath at 37°C. Following a 30-min incubation, the reaction was stopped by transferring the reaction vessel to a bath of boiling water for 3 min. After cooling on ice, 20 μL of a 1 mg/mL solution of C. atrox snake venom was added to the reaction mixture, and the mixture was incubated at 37°C for 10 min. Unreacted [^3H]-cAMP or [^3H]-cGMP was removed by the addition of 500 μL of a 1-in-1 Tris-HCl (40 mM) buffer suspension of Dowex resin (1 × 8-200) with incubation on ice for 30 min. Each tube was then centrifuged for 2 min at 3700 g, and 150 μL of the supernatant was removed for liquid scintillation counting. Less than 10% of the tritiated cyclic nucleotide was hydrolyzed in this assay. The total protein in each fraction used was assayed according to the method described by Bradford. The PDE activities are shown as nmol/mg/min in the Lineweaver-Burk analysis."}, "[1]": {"tested_on": "OVA-sensitized and challenged BALB/c mice", "test": "IgG2a and IgE in serum and BALF (ELISA)", "assay_type": "in vivo, mouse", "experimental": "Ten female BABL/c mice in each group were sensitized by an intraperitoneal (i.p.) injection of 20 μg of OVA emulsified in 2.25 mg aluminum hydroxide gel in a total volume of 100 μL on days 0 and 14. The mice were challenged via the airway by 1% OVA in saline for 30 min on Days 28, 29 and 30 by ultrasonic nebulization. Six weeks after the last of three primary OVA challenges, the mice were exposed to 1% OVA for 30 min by nebulization as a secondary challenge. AHR was assessed on Day 74 (48 h after 1% OVA provocation) in each group. […] For comparison, sham-treated mice were sensitized but challenged with saline instead of 1% OVA (non-challenged). The vehicle, a mixture of alcohol : DMSO : 30% HPβCD : saline (0.5 : 0.5 : 1 : 8 , v/v), or S-petasin was injected at a volume of 0.01 mL/g of body weight. AHR was measured in unrestrained animals by barometric plethysmography using a whole-body plethysmograph (WBP) and analyzed using software of Life Science Suite P3 Analysis Modules (Gould, LDS Test and Measurement LLC, Valley View, OH, USA). The mice were placed into the main chamber of the WBP, and the baseline enhanced pause (P enh) value was determined. Then the mice were nebulized first with phosphate-buffered saline (PBS), and subsequently with increasing doses (6.25–50 mg/mL) of MCh for 3 min for each nebulization, followed by readings of breathing parameters for 3 min after each nebulization with determination of P enh values. Twenty-four hours after the P enh determination, these mice were anesthetized with pentobarbital (50 mg/kg, i.p.), and lavaged via a tracheal tube with PBS (1 × 1.0 mL, 37°C). After lavage, blood was collected from the jugular vein and allowed to sit so that it would coagulate. The collected bronchoalveolar lavage fluid (BALF) and coagulated blood were, respectively, centrifuged at 630 g for 7 min and at 3700 g for 10 min at 4°C, respectively. After centrifugation, the supernatants of BALF and serum were stored at −20°C until the determinations of cytokines, including interleukin (IL)-2, IL-4, IL-5, tumor necrosis factor (TNF)-α and interferon (IFN)-γ by flow cytometric methods using mouse Th1/Th2 cytokine CBA kits, of total immunoglobulin E (IgE), and of total IgG2a using enzyme-linked immunosorbent assay (ELISA) kits (Pharmingen, San Diego, CA, USA) according to the respective recommendations of the manufacturer. OVA-specific IgE was measured as described previously with some modifications. Wells were coated with 100 μL of OVA (20 μg/mL) instead of the capture antibody. Levels are expressed in arbitrary units, where one arbitrary unit equals the optical density of the sample divided by the optical density of unchallenged mouse serum or BALF (standard). The pellet from BALF was re-suspended in ACK lysing buffer (1.658 g NH4Cl, 0.2 g KHCO3 and 1.44 mg EDTA in 200 mL of water) to lyse the residual erythrocytes in each sample. The number of inflammatory cells was counted using a hemocytometer (Hausser Scientific, Horsham, PA, USA). Cytospun slides were stained and differentiated in a blinded fashion by counting at least 100 cells under light microscopy."}}}
{"compound": "C=C(C)[C@@H]1C[C@@]2(C)C(=CC1=O)CC[C@@H](OC(=O)/C=C\\SC)[C@@H]2C", "note": "[S-Petasin]", "values": [{"measurement": "Ki", "setting": "PDE4; Lineweaver-Burk analysis, cAMP substrate, read-out: Ki on PDE isozyme 4", "value": "18.1 ± 1.7", "unit": "µM"}, {"measurement": "Mode of inhibition of PDE4 activity", "setting": "PDE4; Lineweaver-Burk analysis, S-petasin 3–30 μM, Ro 20-1724 1–10 μM", "value": "competitively inhibited"}, {"measurement": "IC50", "setting": "PDE4; mean ± SEM (n), read-out: IC50 on PDE isozyme 4 (taken as PDE4L value)", "value": 17.5, "unit": "µM"}, {"measurement": "Reduction of total IgG2a level in the serum", "setting": "[1]; 30 μmol/kg s.c.", "value": "significantly reversed"}, {"measurement": "Enhancement of total IgE in the BALF", "setting": "[1]; 30 μmol/kg s.c., exception at 10 μmol/kg", "value": "dose-dependently and significantly suppressed"}, {"measurement": "Enhancement of OVA-specific IgE in the BALF", "setting": "[1]; 10–30 μmol/kg s.c.", "value": "dose-dependently and significantly suppressed"}, {"measurement": "Enhancement of OVA-specific IgE in the serum", "setting": "[1]; 10–30 μmol/kg s.c.", "value": "dose-dependently and significantly suppressed"}, {"measurement": "Enhancement of total IgE in the serum", "setting": "[1]; 10–30 μmol/kg s.c.", "value": "dose-dependently and significantly suppressed"}]}
